Where a SMILES comes first, the peptide text is derived from it. [ ]: non-standard residue; d: D form. dPhe(4-Cl) = N[C@H](Cc1ccc(Cl)cc1)C(=O)O; d2Nal = N[C@H](Cc1ccc2ccccc2c1)C(=O)O; dCit = NC(=O)NCCC[C@@H](N)C(=O)O; d3Pal = N[C@H](Cc1cccnc1)C(=O)O
What was measured:
rat GnRHR [1] = target: T1, rat GnRHR (Rattus norvegicus, UniProt P30969); test: Ligand-receptor binding assay, I125-GnRH-2 competition, membranes of GH3 cells expressing rat GnRHR; conditions: log of IC50 (negative values); competition with I125-GnRH-2, 4° C., 16 hours; read-out: Binding affinity (log IC50 value) (converted)
T1 construct: expressed in transfected cells; host or cells: GH3 cells, retrovirus-mediated infection
T1 sequence (P30969 1-327): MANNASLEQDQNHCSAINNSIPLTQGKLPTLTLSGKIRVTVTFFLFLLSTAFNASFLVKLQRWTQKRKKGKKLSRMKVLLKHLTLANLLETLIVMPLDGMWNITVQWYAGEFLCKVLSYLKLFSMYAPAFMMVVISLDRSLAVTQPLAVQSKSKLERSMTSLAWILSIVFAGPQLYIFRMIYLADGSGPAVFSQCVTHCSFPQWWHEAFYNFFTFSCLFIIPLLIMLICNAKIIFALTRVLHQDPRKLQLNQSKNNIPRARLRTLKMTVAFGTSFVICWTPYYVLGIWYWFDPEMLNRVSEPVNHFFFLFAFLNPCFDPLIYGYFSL
Protocol: To determine the binding affinity between GnRH and GnRH receptors, GnRH-2 was radiolabeled with I^125. […] After 48 hours, the cells were homogenized to obtain cellular membranes, which were then dissolved in binding buffer (40 mM Tris, pH 7.4, 2 mM MgCl2). 20 μg of membrane proteins were reacted with I^125-GnRH-2 at 4° C. for 16 hours. […] After the reaction was completed, 1^125-GnRH-2 bound to the receptors was filtered using a Brandel harvester, and cpm was measured using a γ-counter.

bfGnRHR-3 [2] = test: Ligand-receptor binding assay, I125-GnRH-2 competition, membranes of GH3 cells expressing bfGnRHR-3; design: species or system bullfrog; conditions: log of IC50 (negative values); competition with I125-GnRH-2, 4° C., 16 hours
Protocol: To determine the binding affinity between GnRH and GnRH receptors, GnRH-2 was radiolabeled with I^125. The GH3 cells expressing bfGnRHR-1, bfGnRHR-2, bfGnRHR-3, and rat GnRHR constructed in Example 2-3 above were cultured on 100-mm dishes. After 48 hours, the cells were homogenized to obtain cellular membranes, which were then dissolved in binding buffer (40 mM Tris, pH 7.4, 2 mM MgCl2). 20 μg of membrane proteins were reacted with I^125-GnRH-2 at 4° C. for 16 hours. […] After the reaction was completed, 1^125-GnRH-2 bound to the receptors was filtered using a Brandel harvester, and cpm was measured using a γ-counter.
The GH3 cells expressing bfGnRHR-3 obtained from Example 6-1 above were treated with l^125GnRH-2 and GnRH-2 agonists and antagonists at various concentrations to determine the binding affinity of GnRH-2 agonists and antagonists toward the receptors.

rat GnRHR [3] = target: T1, rat GnRHR; test: Inhibition of GnRH-induced IP production, GH3 cells expressing rat GnRHR; assay type: cell-based; conditions: rat GnRH receptors
Protocol: (§1) GH3 cell lines were obtained from the Cell Line Bank at the Cancer Research Center, Seoul National University College of Medicine, located in Seoul, Republic of Korea. The GH3 cell lines were infected with retroviruses comprising genes encoding bfGnRHR-1, bfGnRHR-2, and bfGnRHR-3 which are bullfrog GnRH receptors, and rat GnRHR, and cell lines expressing each of these receptors were obtained. The GH3 cells expressing bfGnRHR-1, bfGnRHR-2, bfGnRHR-3, and rat GnRHR were cultured on 12-well plates. After 24 hours, the cells were cultured again for 24 hours in a media containing no inositol, to which H^3-myoinositol was added. The resultant cells were washed with buffer A (140 mM NaCl, 20 mM HEPES, 4 mM KCl, 8 mM D-Glucose, 1 mM MgCl2, 1 mM CaCl2, 1 mg/ml BSA) and then cultured in buffer A containing 10 mM LiCl at 37°C. for 30 minutes. Thereafter, they were treated with GnRH having a suitable concentration, cultured at 37° C. for another 30 minutes, and then the media was eliminated. The cells were treated with 10 mM of ice-cold formic acid to terminate the reaction, and the cell extracts were mixed with Dowex anionic exchange resins. These resins were washed with distilled water, IP was extracted with 1 M ammonium formate/0.1 M formic acid, and cpm (count per minute) was determined.

bfGnRHR-2 = test: Inhibition of GnRH-2-induced IP production, GH3 cells expressing bfGnRHR-2; assay type: cell-based, bullfrog
Protocol: as §1

Primate GnRH-2 receptor = test: Inhibition of GnRH-2-induced c-fos-luc luciferase activity, cells expressing Primate GnRH-2 receptor; assay type: cell-based, Primates
Protocol: Complimentary DNA (cDNA) for a Primate GnRH-2 receptor was obtained from a CV-1 cell genome. […] Plasmids having Primate GnRH-2 receptors where transfected into CV-1 cells. To assay the activity of the receptor, c-fos-luc where a luciferase gene is fused with a c-fos promoter was co-transfected as a probe gene. After 48 hours from transfection, the cells were treated with GnRH-2 agonists and then the activity of luciferase was assayed (Seong et al., Endocrinology vol 144 2003, 454-466). In the same manner as in 2-3 above, Primate GnRH-2 receptors were co-transfected along with c-fos-luc reporter genes, and after 48 hours, GnRH-2 and GnRH-2 antagonists were treated thereinto at the same time and then the effect of GnRH-2 antagonists was observed. […] Log IC50 value by antagonists is an average value of experiments that were conducted independently three times. ND stands for “not detected” which means that there are no inhibitory functions.

bfGnRHR-3 [4] = test: Inhibition of GnRH-2-induced IP production, GH3 cells expressing bfGnRHR-3; assay type: cell-based, bullfrog
Protocol: as §1

[5] = log of IC50 (negative values), half-maximal inhibition of IP production induced by GnRH-2 (1 nM, 10 nM elsewhere in the source)
[6] = reduction of IP production induced by 1 nM GnRH-2

IC50 (rat GnRHR [1]): 1.78 pM | Binding affinity (log IC50 value) (bfGnRHR-3 [2]): −11.73 ± 0.19 | fold lower effect than Cetrorelix (rat GnRHR [3]): ~60 fold | Log IC50 (bfGnRHR-2; [5]): −8.10 ± 0.08 | Log IC50 (Primate GnRH-2 receptor; log of IC50 (negative values), reporter c-fos-luc, GnRH-2-induced luciferase, average of three experiments, ND = not detected, no inhibitory functions): −5.74 ± 0.10 | Log IC50 (bfGnRHR-3 [4]; [5]): −8.49 ± 0.11
Structure (SMILES): CC(=O)N[C@H](Cc1ccc2ccccc2c1)C(=O)N[C@H](Cc1ccc(Cl)cc1)C(=O)N[C@H](Cc1cccnc1)C(=O)N[C@@H](CO)C(=O)N[C@@H](Cc1ccc(O)cc1)C(=O)N[C@H](CCCNC(N)=O)C(=O)N[C@@H](Cc1c[nH]c2ccccc12)C(=O)N[C@@H](Cc1ccc(O)cc1)C(=O)N1CCC[C@H]1C(=O)N[C@H](C)C(N)=O [Trptorelix-1, Ac-D2Nal-(4Cl)D-Phe-D-3Pal-Ser-Tyr-D-Cit-Trp-Tyr-Pro-DAlaNH2] (Ac-[d2Nal][dPhe(4-Cl)][d3Pal]SY[dCit]WYP[dA]-NH2)
fold more sensitive than Cetrorelix (bfGnRHR-2; [6]): 100 fold | IP production by antagonist alone (bfGnRHR-2; without GnRH-2): production of IP was not observed | effect on luciferase activity induced by GnRH-2 (Primate GnRH-2 receptor; GnRH-2 and antagonist treated at the same time): reduced in a concentration-dependent manner | fold more sensitive than Cetrorelix (bfGnRHR-3 [4]; [6]): about 1000 fold | IP production by antagonist alone (bfGnRHR-3 [4]; without GnRH-2): production of IP was not observed
